Patent US10703764B2, “Benzopiperazine compositions as BET bromodomain inhibitors” (FORMA Therapeutics, Inc., priority 2013, dated 2020)

How the values were obtained:
BRD4 BD2 = biological target: T1, BRD4 BD2 (Homo sapiens, UniProt O60885); assay: AlphaScreen binding assay, BRD4 Bromodomain 2
T1 construct: made in house
Summary of the method: (§1)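 Compound dilution series were mixed with His-tagged BRD4 bromodomain and biotinylated tetra-acetylated H4 (1-21) peptide at pH 7.3 (BD1 and peptide at 50 nM, BD2 and peptide at 100 nM). Donor and acceptor beads were then added, and plates were equilibrated at least 1 h before reading. IC50 values were fitted with a four-parameter logistic model.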

BRD4 BD1 = biological target: T2, BRD4 BD1 (Homo sapiens, UniProt O60885); assay: AlphaScreen binding assay, BRD4 Bromodomain 1
T2 construct: made in house
Summary of the method: as §1

| SMILES | IC50 (BRD4 BD2) [nM] | IC50 (BRD4 BD1) [nM] |
| --- | --- | --- |
| CC(=O)N1c2ccc(-c3ccc(C(F)(F)F)cc3)cc2N(C(=O)c2ccco2)C[C@@H]1C [Example I-815] | 50 to 500 | 1000 to 10000 |
| CC(=O)N1c2ccc(-c3c(C)noc3C)cc2N(C(=O)c2ccco2)C[C@@H]1C [Example I-816] | > 500 | > 10000 |
| CC(=O)N1c2ccc(-c3ccncc3)cc2N(C(=O)c2ccco2)C[C@@H]1C [Example I-820] | < 50 | 1000 to 10000 |
| CC(=O)N1c2ccc(-c3cncnc3)cc2N(C(=O)c2ccco2)C[C@@H]1C [Example I-821] | 50 to 500 | > 10000 |
| CC(=O)N1c2ccc(-c3ccccc3NS(C)(=O)=O)cc2N(C(=O)c2ccco2)C[C@@H]1C [Example I-827] | > 500 | > 10000 |
| CC(=O)N1c2ccc(-c3cncc(F)c3)cc2N(C(=O)c2ccco2)C[C@@H]1C [Example I-830] | 50 to 500 | 1000 to 10000 |
| COc1ccc(-c2ccc3c(c2)N(C(=O)c2ccco2)C[C@H](C)N3C(C)=O)cn1 [Example I-833] | 50 to 500 | 1000 to 10000 |
| COc1ncc(-c2ccc3c(c2)N(C(=O)c2ccco2)C[C@H](C)N3C(C)=O)cn1 [Example I-834] | 50 to 500 | 1000 to 10000 |
| COc1cncc(-c2ccc3c(c2)N(C(=O)c2ccco2)C[C@H](C)N3C(C)=O)c1 [Example I-835] | 50 to 500 | 1000 to 10000 |
| CNC(=O)c1ccc(-c2ccc3c(c2)N(C(=O)c2ccco2)C[C@H](C)N3C(C)=O)cn1 [Example I-836] | < 50 | 1000 to 10000 |
| CC(=O)N1c2ccc(-c3ccc(C(F)(F)F)nc3)cc2N(C(=O)c2ccco2)C[C@@H]1C [Example I-837] | 50 to 500 | 1000 to 10000 |
| CC(=O)N1c2ccc(-c3cccc4cnn(C)c34)cc2N(C(=O)c2ccco2)C[C@@H]1C [Example I-842] | > 500 | > 10000 |
| CC(=O)N1c2ccc(-c3cccc4[nH]ccc34)cc2N(C(=O)c2ccco2)CC1C (centres unmarked) [Example I-846] | 50 to 500 | 1000 to 10000 |
| CC(=O)N1c2ccc(-c3cccc(S(C)(=O)=O)c3)cc2N(C(=O)c2ccco2)C[C@@H]1C [Example I-847] | 50 to 500 | 1000 to 10000 |
| CC(=O)N1c2ccc(-c3cc(C(F)(F)F)nn3C)cc2N(C(=O)c2ccco2)C[C@@H]1C [Example I-851] | > 500 | > 10000 |
| CC(=O)N1c2ccc(-c3cccc(-n4cccn4)c3)cc2N(C(=O)c2ccco2)C[C@@H]1C [Example I-853] | < 50 | 100 to 1000 |
| CC(=O)N1c2ccc(-c3cccc(-c4nnc(C)o4)c3)cc2N(C(=O)c2ccco2)C[C@@H]1C [Example I-854] | 50 to 500 | 1000 to 10000 |
| CC(=O)N1c2ccc(-c3cccc(-c4ccco4)c3)cc2N(C(=O)c2ccco2)C[C@@H]1C [Example I-855] | < 50 | 1000 to 10000 |
| CC(=O)N1c2ccc(-c3cccc(C(N)=O)c3)cc2N(C(=O)c2ccco2)C[C@@H]1C [Example I-856] | < 50 | 1000 to 10000 |

| SMILES | IC50 (BRD4 BD2) [nM] | IC50 (BRD4 BD1) [nM] |
| --- | --- | --- |
| CC(=O)N1c2ccc(-c3cccc4c3cnn4C)cc2N(C(=O)c2ccco2)C[C@@H]1C [Example I-858] | 50 to 500 | 1000 to 10000 |
| CC(=O)N1c2ccc(-c3ccc(S(=O)(=O)C(F)(F)F)cc3)cc2N(C(=O)c2ccco2)C[C@@H]1C [Example I-866] | 50 to 500 | 1000 to 10000 |
| CC(=O)N1c2ccc(-c3cccc(N(C)C)c3)cc2N(C(=O)c2ccco2)C[C@@H]1C [Example I-870] | 50 to 500 | 100 to 1000 |
| CC(=O)N1c2ccc(-c3cccc4ccsc34)cc2N(C(=O)c2ccco2)C[C@@H]1C [Example I-873] | > 500 | 1000 to 10000 |
| COc1ccc(C(=O)N2C[C@H](C)N(C(C)=O)c3ccc(-c4ccc(S(C)(=O)=O)cc4)cc32)cc1 [Example I-877] | 50 to 500 | 1000 to 10000 |
| CC(=O)N1c2ccc(-c3ccc(S(C)(=O)=O)cc3)cc2N(C(=O)c2ccc(Oc3cc(Cl)cc(Cl)c3)o2)C[C@@H]1C [Example I-880] | > 500 | > 10000 |
| COc1ccc2[nH]c(C(=O)N3CC(C)N(C(C)=O)c4ccc(-c5ccc(S(C)(=O)=O)cc5)cc43)cc2c1 (centres unmarked) [Example I-882] | 50 to 500 | 1000 to 10000 |
| COc1cccc2[nH]c(C(=O)N3CC(C)N(C(C)=O)c4ccc(-c5ccc(S(C)(=O)=O)cc5)cc43)cc12 (centres unmarked) [Example I-883] | > 500 | > 10000 |
| CC(=O)N1c2ccc(-c3ccc(S(C)(=O)=O)cc3)cc2N(C(=O)c2csc(-c3ccccc3)n2)C[C@@H]1C [Example I-885] | > 500 | > 10000 |
| CC(=O)N1c2ccc(-c3ccc(S(C)(=O)=O)cc3)cc2N(C(=O)c2ccc(C(F)(F)F)o2)C[C@@H]1C [Example I-887] | 50 to 500 | > 10000 |
| CC(=O)N1c2ccc(-c3ccc(S(C)(=O)=O)cc3)cc2N(C(=O)c2ccc(S(C)(=O)=O)o2)C[C@@H]1C [Example I-888] | > 500 | > 10000 |
| CC(=O)N1c2ccc(-c3ccc(S(C)(=O)=O)cc3)cc2N(C(=O)c2ccc(CN)o2)C[C@@H]1C [Example I-890] | 50 to 500 | 1000 to 10000 |
| CC(=O)N1c2ccccc2N(Cc2ccc(N(C)C)cc2)C[C@@H]1C [Example I-891] | > 500 | > 10000 |
| CC(=O)N1c2ccccc2N(Cc2ccc(Cl)cc2Cl)C[C@@H]1C [Example I-894] | > 500 | > 10000 |
| CC(=O)N1c2ccccc2N(Cc2ccc(C)cc2)C[C@@H]1C [Example I-895] | > 500 | > 10000 |
| CC(=O)N1c2ccccc2N(Cc2ccccc2C)C[C@@H]1C [Example I-896] | > 500 | > 10000 |
| CC(=O)N1c2ccccc2N(Cc2ccc(F)cc2F)C[C@@H]1C [Example I-897] | > 500 | > 10000 |
| CC(=O)N1c2ccccc2N(Cc2cccc(C(F)(F)F)c2)C[C@@H]1C [Example I-899] | > 500 | > 10000 |

Other lines, results leading:

| IC50 (BRD4 BD2) [nM] | IC50 (BRD4 BD1) [nM] | SMILES |
| --- | --- | --- |
| 50 to 500 | 1000 to 10000 | CC(=O)N1c2ccc(-c3ccc(Oc4ccccc4)cc3)cc2N(C(=O)c2ccco2)C[C@@H]1C [Example I-813] |
| < 50 | 1000 to 10000 | CC(=O)N1c2ccc(-c3ccc(-n4cccn4)c(F)c3)cc2N(C(=O)c2ccco2)C[C@@H]1C [Example I-814] |
| < 50 | 1000 to 10000 | CC(=O)N1c2ccc(-c3ccc(F)cc3)cc2N(C(=O)c2ccco2)C[C@@H]1C [Example I-818] |
| 50 to 500 | 1000 to 10000 | CC(=O)N1c2ccc(-c3cccnc3)cc2N(C(=O)c2ccco2)C[C@@H]1C [Example I-819] |
| 50 to 500 | 1000 to 10000 | CC(=O)N1c2ccc(-c3cnc4ccccc4c3)cc2N(C(=O)c2ccco2)C[C@@H]1C [Example I-823] |
| > 500 | > 10000 | COc1cc(F)ccc1-c1ccc2c(c1)N(C(=O)c1ccco1)C[C@H](C)N2C(C)=O [Example I-826] |
| 50 to 500 | 1000 to 10000 | COc1cc(-c2ccc3c(c2)N(C(=O)c2ccco2)C[C@H](C)N3C(C)=O)ccc1F [Example I-828] |
| < 50 | 1000 to 10000 | CC(=O)N1c2ccc(-c3ccc(F)c(C(=O)NC(C)C)c3)cc2N(C(=O)c2ccco2)C[C@@H]1C [Example I-829] |
| < 50 | 1000 to 10000 | CC(=O)N1c2ccc(-c3cnc(N(C)C)nc3)cc2N(C(=O)c2ccco2)C[C@@H]1C [Example I-831] |
| 50 to 500 | 1000 to 10000 | CC(=O)N1c2ccc(-c3cncc(Cl)c3)cc2N(C(=O)c2ccco2)C[C@@H]1C [Example I-832] |
| > 500 | > 10000 | CC(=O)N1c2ccc(-c3cc4ccccc4n3C)cc2N(C(=O)c2ccco2)C[C@@H]1C [Example I-839] |
| 50 to 500 | 1000 to 10000 | CC(=O)N1c2ccc(-c3ccc4cn(C)nc4c3)cc2N(C(=O)c2ccco2)C[C@@H]1C [Example I-840] |
| 50 to 500 | 1000 to 10000 | CC(=O)N1c2ccc(-c3ccnc(C(F)(F)F)c3)cc2N(C(=O)c2ccco2)C[C@@H]1C [Example I-861] |
| 50 to 500 | 1000 to 10000 | CC(=O)N1c2ccc(-c3cc(F)cc(F)c3)cc2N(C(=O)c2ccco2)C[C@@H]1C [Example I-869] |
| 50 to 500 | > 10000 | CC(=O)N1c2ccc(-c3ccc(S(C)(=O)=O)cc3)cc2N(C(=O)c2ccc(F)cc2)C[C@@H]1C [Example I-878] |
| > 500 | > 10000 | CC(=O)N1c2ccc(-c3ccc(S(C)(=O)=O)cc3)cc2N(C(=O)c2ccc(OC(F)(F)F)cc2)C[C@@H]1C [Example I-879] |
| > 500 | > 10000 | CC(=O)N1c2ccc(-c3ccc(S(C)(=O)=O)cc3)cc2N(C(=O)c2cn(C)cn2)C[C@@H]1C [Example I-881] |
| > 500 | > 10000 | CC(=O)N1c2ccc(-c3ccc(S(C)(=O)=O)cc3)cc2N(C(=O)c2ncoc2C)C[C@@H]1C [Example I-884] |
| 50 to 500 | > 10000 | CC(=O)N1c2ccc(-c3ccc(S(C)(=O)=O)cc3)cc2N(C(=O)c2ccc(-c3ccccc3)o2)C[C@@H]1C [Example I-886] |
| > 500 | > 10000 | CC(=O)Nc1cccc(C(=O)N2C[C@H](C)N(C(C)=O)c3ccc(-c4ccc(S(C)(=O)=O)cc4)cc32)c1 [Example I-889] |
| > 500 | > 10000 | CC(=O)N1c2ccccc2N(Cc2ccc(C(C)C)cc2)C[C@@H]1C [Example I-892] |
| > 500 | > 10000 | CC(=O)N1c2ccccc2N(Cc2cccc(C)c2)C[C@@H]1C [Example I-893] |
| > 500 | > 10000 | CC(=O)N1c2ccccc2N(Cc2ccc(Cl)c(F)c2)C[C@@H]1C [Example I-898] |
| > 500 | > 10000 | CC(=O)N1c2ccccc2N(Cc2cc(C(F)(F)F)cc(C(F)(F)F)c2)C[C@@H]1C [Example I-900] |
